Assay results as given in PubChem BioAssay AID248 (DTP/NCI, 2004).
“And” between values parts separate entries of the source, which are not always exact repeats. Equal entries are not always repeated. Toxic doses and inconclusive results are not listed.

Tested on: L1210 leukemia ip in BDF1 mice, survival T/C
Experiment: NCI In Vivo Anticancer Drug Screen. Data for tumor model L1210 Leukemia (intraperitoneal) in B6D2F1 (BDF1) mice
Conditions: endpoint: mean survival time, higher = longer survival
In short: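 Antitumor effect is assessed in tumor-bearing animals. Survival in the compound arm is compared with a vehicle-dosed control arm and expressed as their quotient.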

[1] = dose: 100.0 mg/kg/injection, schedule: Q01DX001 (ip), vehicle: saline
[2] = dose: 100.0 mg/kg/injection, schedule: Q01DX009 (ip), vehicle: saline
[3] = dose: 200.0 mg/kg/injection, schedule: Q01DX001 (ip), vehicle: saline
[4] = dose: 200.0 mg/kg/injection, schedule: Q01DX009 (ip), vehicle: saline
[5] = dose: 400.0 mg/kg/injection, schedule: Q01DX001 (ip), vehicle: saline
[6] = dose: 400.0 mg/kg/injection, schedule: Q01DX009 (ip), vehicle: saline
[7] = dose: 100.0 mg/kg/injection, schedule: Q04DX003 (ip), vehicle: saline with Tween-80
[8] = dose: 200.0 mg/kg/injection, schedule: Q04DX003 (ip), vehicle: saline with Tween-80

NCCNCCNCCN
T/C (dose: 50.0 mg/kg/injection, schedule: Q01DX001 (ip), vehicle: saline): 95 % of control | T/C [1]: 95 % of control | T/C [2]: 93 % of control | T/C (dose: 100.0 mg/kg/injection, schedule: Q04DX003 (ip), vehicle: saline): 102 % of control | T/C [3]: 98 % of control | T/C [4]: 93 % of control | T/C (dose: 200.0 mg/kg/injection, schedule: Q04DX003 (ip), vehicle: saline): 105 % of control | T/C [5]: 101 % of control | T/C [6]: 109 % of control | T/C (dose: 400.0 mg/kg/injection, schedule: Q04DX003 (ip), vehicle: saline): 94 % of control

O=[N+]([O-])c1ccc(CC2=NCCc3cc4c(cc32)OCO4)cc1
T/C [1]: 98 % of control | T/C [3]: 96 % of control | T/C [5]: 105 % of control

O=P(NC12CC3CC(CC(C3)C1)C2)(N1CC1)N1CC1
T/C (dose: 4.0 mg/kg/injection, schedule: Q04DX003 (ip), vehicle: Klucel (hydroxypropylcellulose) (HPC)): 107 % of control | T/C (dose: 9.0 mg/kg/injection, schedule: Q04DX003 (ip), vehicle: Klucel (hydroxypropylcellulose) (HPC)): 150 % of control | T/C (dose: 13.3 mg/kg/injection, schedule: Q04DX003 (ip), vehicle: Klucel (hydroxypropylcellulose) (HPC)): 152 % of control and 182 % of control | T/C (dose: 20.0 mg/kg/injection, schedule: Q04DX003 (ip), vehicle: Klucel (hydroxypropylcellulose) (HPC)): 155 % of control and 176 % of control and 225 % of control | T/C (dose: 27.0 mg/kg/injection, schedule: Q01DX001 (ip), vehicle: Klucel (hydroxypropylcellulose) (HPC)): 169 % of control | T/C (dose: 30.0 mg/kg/injection, schedule: Q04DX003 (ip), vehicle: Klucel (hydroxypropylcellulose) (HPC)): 92 % of control

O=C(O)CCc1nc2ccccc2[nH]1
T/C (dose: 75.0 mg/kg/injection, schedule: Q01DX009 (ip), vehicle: Klucel (hydroxypropylcellulose) (HPC)): 107 % of control | T/C (dose: 150.0 mg/kg/injection, schedule: Q01DX009 (ip), vehicle: Klucel (hydroxypropylcellulose) (HPC)): 100 % of control | T/C (dose: 300.0 mg/kg/injection, schedule: Q01DX009 (ip), vehicle: Klucel (hydroxypropylcellulose) (HPC)): 104 % of control

COC(=O)c1ccccc1NS(=O)(=O)c1ccc(Cl)cc1
T/C (dose: 100.0 mg/kg/injection, schedule: Q04DX002 (ip), vehicle: Klucel (hydroxypropylcellulose) (HPC)): 94 % of control | T/C (dose: 400.0 mg/kg/injection, schedule: Q04DX002 (ip), vehicle: Klucel (hydroxypropylcellulose) (HPC)): 110 % of control

C=C1N(C)c2ccc(Cl)cc2C1(C)C
T/C (dose: 50.0 mg/kg/injection, schedule: Q01DX009 (ip), vehicle: saline with Tween-80): 102 % of control | T/C (dose: 100.0 mg/kg/injection, schedule: Q01DX009 (ip), vehicle: saline with Tween-80): 98 % of control | T/C [7]: 94 % of control | T/C [8]: 96 % of control

CCCCCCCCC(O)CCC (stereo not given)
T/C [2]: 102 % of control | T/C [4]: 105 % of control | T/C [6]: 102 % of control

CCOC(=O)/C=C1/Nc2cc(Cl)c(Cl)cc2NC1=O
T/C [7]: 97 % of control | T/C [8]: 95 % of control | T/C (dose: 400.0 mg/kg/injection, schedule: Q04DX003 (ip), vehicle: saline with Tween-80): 89 % of control

Cc1c[nH]c(=O)[nH]1
T/C (dose: 100.0 mg/kg/injection, schedule: Q04DX002 (ip), vehicle: saline): 109 % of control | T/C (dose: 200.0 mg/kg/injection, schedule: Q04DX002 (ip), vehicle: saline): 106 % of control | T/C (dose: 400.0 mg/kg/injection, schedule: Q04DX002 (ip), vehicle: saline): 117 % of control

Cc1[nH]c(=S)oc1C
T/C (dose: 75.0 mg/kg/injection, schedule: Q01DX001 (ip), vehicle: other): 105 % of control | T/C (dose: 150.0 mg/kg/injection, schedule: Q01DX001 (ip), vehicle: other): 97 % of control | T/C (dose: 300.0 mg/kg/injection, schedule: Q01DX001 (ip), vehicle: other): 103 % of control

CN(Cc1ccccc1)Cc1cc(CO)ccc1O
T/C (dose: 100.0 mg/kg/injection, schedule: Q01DX001 (ip), vehicle: carboxymethylcellulose (CMC)): 103 % of control | T/C (dose: 200.0 mg/kg/injection, schedule: Q01DX001 (ip), vehicle: carboxymethylcellulose (CMC)): 105 % of control

COc1ccccc1NC(=O)C(C(C)=O)C(c1cccc([N+](=O)[O-])c1)C(C(C)=O)C(=O)Nc1ccccc1OC (stereo not given)
T/C [1]: 96 % of control | T/C [3]: 96 % of control | T/C [5]: 89 % of control

Nc1ccc(S(=O)(=O)O)c2cccc(O)c12
T/C (dose: 100.0 mg/kg/injection, schedule: Q04DX002 (ip), vehicle: carboxymethylcellulose (CMC)): 103 % of control | T/C (dose: 100.0 mg/kg/injection, schedule: Q04DX003 (ip), vehicle: Klucel (hydroxypropylcellulose) (HPC)): 101 % of control | T/C (dose: 200.0 mg/kg/injection, schedule: Q04DX002 (ip), vehicle: carboxymethylcellulose (CMC)): 107 % of control | T/C (dose: 200.0 mg/kg/injection, schedule: Q04DX003 (ip), vehicle: Klucel (hydroxypropylcellulose) (HPC)): 91 % of control | T/C (dose: 400.0 mg/kg/injection, schedule: Q04DX003 (ip), vehicle: Klucel (hydroxypropylcellulose) (HPC)): 101 % of control
